ChEMBL document CHEMBL4000244, “Probing A-form DNA: A fluorescent aminosugar probe and dual recognition by anthraquinone-neomycin conjugates” (Bioorg Med Chem, 2017)

Columns and labels:
[1] = Binding affinity to 5'-GGGCGCGG-3' DNA hairpin assessed as change in fluorescence intensity at 1 uM after 45 mins by fluorescence quenching analysis relative to control
[2] = Binding affinity to 5'-CCCGCGGC-3' DNA hairpin assessed as change in fluorescence intensity at 1 uM after 45 mins by fluorescence quenching analysis relative to control
[3] = Binding affinity to 5'-CGGGGGGC-3' DNA hairpin assessed as change in fluorescence intensity at 1 uM after 45 mins by fluorescence quenching analysis relative to control
[4] = Binding affinity to 5'-GGCCCGCG-3' DNA hairpin assessed as change in fluorescence intensity at 1 uM after 45 mins by fluorescence quenching analysis relative to control
[5] = Binding affinity to 5'-CCCGGGCG-3' DNA hairpin assessed as change in fluorescence intensity at 1 uM after 45 mins by fluorescence quenching analysis relative to control
[6] = Binding affinity to 5'-CCGCGCCG-3' DNA hairpin assessed as change in fluorescence intensity at 1 uM after 45 mins by fluorescence quenching analysis relative to control
[7] = Binding affinity to 5'-GGCGGGCC-3' DNA hairpin assessed as change in fluorescence intensity at 1 uM after 45 mins by fluorescence quenching analysis relative to control
[8] = Binding affinity to 5'-CGGGGGGG-3' DNA hairpin assessed as change in fluorescence intensity at 1 uM after 45 mins by fluorescence quenching analysis relative to control
[9] = Binding affinity to 5'-CCCCGCCC-3' DNA hairpin assessed as change in fluorescence intensity at 1 uM after 45 mins by fluorescence quenching analysis relative to control
[10] = Binding affinity to 5'-GGGGCCGC-3' DNA hairpin assessed as change in fluorescence intensity at 1 uM after 45 mins by fluorescence quenching analysis relative to control
[11] = Binding affinity to 5'-CCGCGGGG-3' DNA hairpin assessed as change in fluorescence intensity at 1 uM after 45 mins by fluorescence quenching analysis relative to control
[12] = Binding affinity to 5'-CGCCGGGC-3' DNA hairpin assessed as change in fluorescence intensity at 1 uM after 45 mins by fluorescence quenching analysis relative to control
[13] = Binding affinity to 5'-GCCGCGGG-3' DNA hairpin assessed as change in fluorescence intensity at 1 uM after 45 mins by fluorescence quenching analysis relative to control
[14] = Binding affinity to 5'-CGCCGCGC-3' DNA hairpin assessed as change in fluorescence intensity at 1 uM after 45 mins by fluorescence quenching analysis relative to control
[15] = Binding affinity to 5'-GGCCGGCC-3' DNA hairpin assessed as change in fluorescence intensity at 1 uM after 45 mins by fluorescence quenching analysis relative to control
[16] = Binding affinity to 5'-GGGCGGGC-3' DNA hairpin assessed as change in fluorescence intensity at 1 uM after 45 mins by fluorescence quenching analysis relative to control
[17] = Binding affinity to 5'-GGCGCGGG-3' DNA hairpin assessed as change in fluorescence intensity at 1 uM after 45 mins by fluorescence quenching analysis relative to control
[18] = Binding affinity to 5'-GCCCCGCC-3' DNA hairpin assessed as change in fluorescence intensity at 1 uM after 45 mins by fluorescence quenching analysis relative to control
[19] = Binding affinity to 5'-CGCCGCGG-3' DNA hairpin assessed as change in fluorescence intensity at 1 uM after 45 mins by fluorescence quenching analysis relative to control
[20] = Binding affinity to 5'-GGGGGCGC-3' DNA hairpin assessed as change in fluorescence intensity at 1 uM after 45 mins by fluorescence quenching analysis relative to control
[21] = Binding affinity to 5'-GGGGCGGC-3' DNA hairpin assessed as change in fluorescence intensity at 1 uM after 45 mins by fluorescence quenching analysis relative to control
[22] = Binding affinity to 5'-CCGGGGGG-3' DNA hairpin assessed as change in fluorescence intensity at 1 uM after 45 mins by fluorescence quenching analysis relative to control
[23] = Binding affinity to 5'-CGCCGCCC-3' DNA hairpin assessed as change in fluorescence intensity at 1 uM after 45 mins by fluorescence quenching analysis relative to control
[24] = Binding affinity to 5'-CGGCCCCG-3' DNA hairpin assessed as change in fluorescence intensity at 1 uM after 45 mins by fluorescence quenching analysis relative to control
[25] = Binding affinity to 5'-GGCCCGGG-3' DNA hairpin assessed as change in fluorescence intensity at 1 uM after 45 mins by fluorescence quenching analysis relative to control
[26] = Binding affinity to 5'-GCGGCCCC-3' DNA hairpin assessed as change in fluorescence intensity at 1 uM after 45 mins by fluorescence quenching analysis relative to control
[27] = Binding affinity to 5'-GCGCGCGG-3' DNA hairpin assessed as change in fluorescence intensity at 1 uM after 45 mins by fluorescence quenching analysis relative to control
[28] = Binding affinity to 5'-CGGGGGCC-3' DNA hairpin assessed as change in fluorescence intensity at 1 uM after 45 mins by fluorescence quenching analysis relative to control
[29] = Binding affinity to 5'-CCCGCCCC-3' DNA hairpin assessed as change in fluorescence intensity at 1 uM after 45 mins by fluorescence quenching analysis relative to control
[30] = Binding affinity to 5'-CGCCCGCC-3' DNA hairpin assessed as change in fluorescence intensity at 1 uM after 45 mins by fluorescence quenching analysis relative to control
[31] = Binding affinity to 5'-GGGCCGCC-3' DNA hairpin assessed as change in fluorescence intensity at 1 uM after 45 mins by fluorescence quenching analysis relative to control
[32] = Binding affinity to 5'-GCGGGCCG-3' DNA hairpin assessed as change in fluorescence intensity at 1 uM after 45 mins by fluorescence quenching analysis relative to control
[33] = Binding affinity to 5'-GGCGCGCC-3' DNA hairpin assessed as change in fluorescence intensity at 1 uM after 45 mins by fluorescence quenching analysis relative to control
[34] = Binding affinity to 5'-CGGGCCCG-3' DNA hairpin assessed as change in fluorescence intensity at 1 uM after 45 mins by fluorescence quenching analysis relative to control
[35] = Binding affinity to 5'-CCCGCGCC-3' DNA hairpin assessed as change in fluorescence intensity at 1 uM after 45 mins by fluorescence quenching analysis relative to control
[36] = Binding affinity to 5'-CGGCGCGG-3' DNA hairpin assessed as change in fluorescence intensity at 1 uM after 45 mins by fluorescence quenching analysis relative to control

Activity [1]: 51.5%
Activity [2]: 45.4%
Activity [3]: 32.2%
Activity [4]: 34.3%
Activity [5]: 39%
Activity [6]: 53.7%
Activity [7]: 53.2%
Activity [8]: 35.9%
Activity [9]: 45.7%
Activity [10]: 41.3%
Activity [11]: 48.6%
Activity [12]: 49.5%
Activity [13]: 52.7%
Activity [14]: 46.6%
Activity [15]: 45%
Activity [16]: 44.1%
Activity [17]: 46.2%
Activity [18]: 40.2%
Activity [19]: 49.8%
Activity [20]: 35.6%
Activity [21]: 44.6%
Activity [22]: 45.1%
Activity [23]: 44.6%
Activity [24]: 33.2%
Activity [25]: 26.7%
Activity [26]: 37.2%
Activity [27]: 51.2%
Activity [28]: 38.1%
Activity [29]: 46.7%
Activity [30]: 42%
Activity [31]: 40%
Activity [32]: 40.9%
Activity [33]: 49%
Activity [34]: 41.3%
Activity [35]: 63.4%
Activity [36]: 43.2%
Compound: NCC1O[C@H](O[C@H]2[C@@H](O)[C@H](O[C@@H]3[C@@H](O)[C@H](N)C[C@H](N)[C@H]3O[C@H]3O[C@H](CN)[C@@H](O)[C@H](O)[C@H]3N)O[C@@H]2CSCCNC(=O)CCSCC(=O)Nc2ccc(-c3c4ccc(=O)cc-4oc4cc(O)ccc34)c(C(=O)O)c2)[C@H](N)[C@@H](O)[C@@H]1O (stereo partly specified)
